Laboratory results published in the NIST ThermoML archive (doi:10.1021/je034078h).
Numbers after ± are expanded uncertainties.

Experiment: xn = mol fraction of the nth substance listed
Conditions: 101.3 kPa, Liquid; for viscosity: Capillary tube (Ostwald / Ubbelohde) method; for electrical conductivity: Shanghai Precision & Scientific Instrument Co., LTD (DDS-307)

CCCCn1cc[n+](C)c1.F[P-](F)(F)(F)(F)F [1-butyl-3-methylimidazolium hexafluorophosphate] + CC(C)=O
viscosity (288.15 K, x2 = 0.2): 165 ± 6.9 mPa·s | viscosity (288.15 K, x2 = 0.48): 25.1 ± 0.9 mPa·s | electrical conductivity (288.15 K, x2 = 0.2): 0.00298 ± 0.00018 S/m | electrical conductivity (288.15 K, x2 = 0.48): 0.00925 ± 0.00056 S/m | viscosity (293.15 K, x2 = 0.2): 127 ± 5.1 mPa·s | viscosity (293.15 K, x2 = 0.48): 21.2 ± 0.7 mPa·s | electrical conductivity (293.15 K, x2 = 0.2): 0.00342 ± 0.00021 S/m | electrical conductivity (293.15 K, x2 = 0.48): 0.00965 ± 0.00058 S/m | viscosity (298.15 K, x2 = 0.2): 100.2 ± 3.9 mPa·s | viscosity (298.15 K, x2 = 0.48): 18.2 ± 0.6 mPa·s | electrical conductivity (298.15 K, x2 = 0.2): 0.00375 ± 0.00023 S/m | electrical conductivity (298.15 K, x2 = 0.48): 0.0102 ± 0.00061 S/m | viscosity (303.15 K, x2 = 0.2): 79.8 ± 3 mPa·s | viscosity (303.15 K, x2 = 0.48): 16 ± 0.5 mPa·s | electrical conductivity (303.15 K, x2 = 0.2): 0.00429 ± 0.00026 S/m | electrical conductivity (303.15 K, x2 = 0.48): 0.0106 ± 0.00064 S/m | viscosity (308.15 K, x2 = 0.2): 64.1 ± 2.4 mPa·s | viscosity (308.15 K, x2 = 0.48): 13.8 ± 0.5 mPa·s | electrical conductivity (308.15 K, x2 = 0.2): 0.00467 ± 0.00028 S/m | electrical conductivity (308.15 K, x2 = 0.48): 0.011 ± 0.00066 S/m

CCCCn1cc[n+](C)c1.F[P-](F)(F)(F)(F)F [1-butyl-3-methylimidazolium hexafluorophosphate] + CCO
viscosity (288.15 K, x2 = 0.2): 200.6 ± 8.7 mPa·s | viscosity (288.15 K, x2 = 0.48): 48 ± 1.7 mPa·s | electrical conductivity (288.15 K, x2 = 0.2): 0.00302 ± 0.00018 S/m | electrical conductivity (288.15 K, x2 = 0.48): 0.0068 ± 0.00041 S/m | viscosity (293.15 K, x2 = 0.2): 148.1 ± 6.2 mPa·s | viscosity (293.15 K, x2 = 0.48): 37.7 ± 1.3 mPa·s | electrical conductivity (293.15 K, x2 = 0.2): 0.00336 ± 0.0002 S/m | electrical conductivity (293.15 K, x2 = 0.48): 0.00733 ± 0.00044 S/m | viscosity (298.15 K, x2 = 0.2): 113.7 ± 4.5 mPa·s | viscosity (298.15 K, x2 = 0.48): 30.1 ± 1 mPa·s | electrical conductivity (298.15 K, x2 = 0.2): 0.0038 ± 0.00023 S/m | electrical conductivity (298.15 K, x2 = 0.48): 0.00798 ± 0.00048 S/m | viscosity (303.15 K, x2 = 0.2): 88.4 ± 3.4 mPa·s | viscosity (303.15 K, x2 = 0.48): 24.8 ± 0.8 mPa·s | electrical conductivity (303.15 K, x2 = 0.2): 0.0043 ± 0.00026 S/m | electrical conductivity (303.15 K, x2 = 0.48): 0.00863 ± 0.00052 S/m | viscosity (308.15 K, x2 = 0.2): 71.5 ± 2.7 mPa·s | viscosity (308.15 K, x2 = 0.48): 21 ± 0.7 mPa·s | electrical conductivity (308.15 K, x2 = 0.2): 0.00475 ± 0.00029 S/m | electrical conductivity (308.15 K, x2 = 0.48): 0.00933 ± 0.00056 S/m

CCCCn1cc[n+](C)c1.F[P-](F)(F)(F)(F)F [1-butyl-3-methylimidazolium hexafluorophosphate] + O
viscosity (293.15 K, x2 = 0.2): 166.4 ± 9.4 mPa·s | electrical conductivity (293.15 K, x2 = 0.2): 0.0033 ± 0.0002 S/m | viscosity (298.15 K, x2 = 0.2): 128.7 ± 5.2 mPa·s | electrical conductivity (298.15 K, x2 = 0.2): 0.00372 ± 0.00022 S/m | viscosity (303.15 K, x2 = 0.2): 99.2 ± 3.9 mPa·s | electrical conductivity (303.15 K, x2 = 0.2): 0.00429 ± 0.00026 S/m | viscosity (308.15 K, x2 = 0.2): 78.2 ± 3.4 mPa·s | electrical conductivity (308.15 K, x2 = 0.2): 0.00478 ± 0.00029 S/m
